# Test results: PMC12030627, “Radioiodinated Bicyclic RGD Peptide Derivatives for Enhanced Tumor Accumulation” (Pharmaceuticals, 2025)
# Read-outs that look alike come from different tables or passages of the source. Starred links: 1 amine or outer side, 2 acyl side, 3 side chain; linkers in the order of their positions; H or OH if unused. Positions of bridges follow the written chain, without caps; N, C: chain ends. Non-standard residues stand in square brackets, D forms with d. Residues, ends and D or L forms follow the SMILES beside them. *: point of attachment. Butanoyl(4-(4-I-phenyl)) = O=C(CCCc1ccc(I)cc1)*; TBMB = c1c(C[*:1])cc(C[*:3])cc1C[*:2]; Benzoyl(3-I) = O=C(c1cccc(I)c1)*; 4Abz = Nc1ccc(C(=O)O)cc1
# Assay: Biodistribution in U-87 MG tumor-bearing mice
# Assay type: in vivo, BALB/c nu-nu mice
# Settings: male, BALB/c nu-nu, mouse, iv, 37 kBq, total radioactivity; for tissue uptake at 5 min: 5 min after i.v. administration; for tissue uptake at 5 min / tissue uptake at 0.5 h / tissue uptake at 1 h / tissue uptake at 2 h / tissue uptake at 6 h / tissue uptake at 12 h / tissue uptake at 24 h: U-87 MG-bearing mice, mean ± SD, n = 3; for tissue uptake at 0.5 h: 30 min after i.v. administration; for tissue uptake at 1 h: 1 h after i.v. administration; for tissue uptake at 2 h: 2 h after i.v. administration; for tissue uptake at 6 h: 6 h after i.v. administration; for tissue uptake at 12 h: 12 h after i.v. administration; for tissue uptake at 24 h: 24 h after i.v. administration
# Description: Animal experiments were performed in compliance with institutional animal care regulations, with the study protocol approved by the Experimental Animal Committee of Osaka Medical and Pharmaceutical University (Approval Numbers: 21–76, 22–76, and 23–76). Four-week-old male BALB/c nu-nu mice (Japan SLC, Shizuoka, Japan) were housed under a 12 h light/12 h dark cycle with free access to food and water. Tumor-bearing mice were established by suspending U-87 MG cells (2 × 10^6 cells/mouse) in PBS(–) and subcutaneously injecting 100 μL of the suspension into the right hind leg. For co-implantation models, A549 cells (2 × 10^6 cells/mouse) were suspended in PBS(–) and inoculated (100 μL) into the left hind leg of the same mice already inoculated with U-87 MG cells. Mice with tumor size approximately 10 mm in diameter, 4–5 weeks after inoculation, were used for biodistribution studies. Animals in which either tumor was not viable were excluded from the experiment.
# U-87 MG-bearing mice (n = 42, 8–9 weeks old; 22–27 g) were randomly assigned into groups and administered [^125I]bcRGDpal or [^125I]bcRGDiba via intravenous injection (37 kBq in 100 μL of PBS containing 0.1% Tween 80 (PBS-T80)). At 5 min, 30 min, 1 h, 2 h, 6 h, 12 h, or 24 h post-injection, the mice were euthanized (n = 3 per time point). The heart, kidneys, liver, brain, pancreas, spleen, lung, small intestine, large intestine, muscle, skin, stomach, bone, and tumors were excised. Each organ’s weight and radioactivity were measured by a NaI well-type scintillation counter, and the % ID/g was calculated. To investigate the correlation between integrin expression and radioactivity accumulation, biodistribution at 2 h after administration of [^125I]bcRGDpal or [^125I]bcRGDiba was assessed in A549 and U-87 MG co-implantation mice (n = 5) using the same procedure. Additionally, co-implantation mice were injected with [^125I]bcRGDdimer (37 kBq/100 μL PBS-T80) and euthanized at 30 min, 2 h, and 4 h post-injection (n = 4 per time point), and % ID/g values were calculated as described above. The minimum sample size needed for the biodistribution study in U-87 MG-bearing mice was calculated using G Power software version 3.1.9.7. The calculation was based on a two-tailed test, with an effect size of 3.9, a significance level (α) of 0.05, and a statistical power (1 − β) of 0.8. […] The minimum required sample size for the biodistribution study in A549 and U-87 MG co-implantation mice was also calculated to be four animals per group (effect size = 2.5, α = 0.05, 1 − β = 0.8). To guarantee objective results, the experiment was carried out in a blinded manner. Specifically, drug administration and radioactivity measurements were conducted by different investigators to eliminate potential bias.
# [1] = U-87 MG tumor, read-out: Radioactivity in U-87 MG tumor
# [2] = blood, read-out: Radioactivity in blood
# [3] = bone, read-out: Radioactivity in bone
# [4] = brain, read-out: Radioactivity in brain
# [5] = heart, read-out: Radioactivity in heart
# [6] = kidneys, read-out: Radioactivity in kidneys
# [7] = large intestine, read-out: Radioactivity in large intestine
# [8] = liver, read-out: Radioactivity in liver
smiles,measurement,setting,value
N=C(N)NCCC[C@@H]1NC(=O)[C@H]2CSCc3cc(cc(c3)CSC[C@H](C(N)=O)NC(=O)[C@H](CC(=O)O)NC(=O)CNC1=O)CSC[C@H](NC(=O)CNC(=O)[C@H](CO)NC(=O)c1ccc(NC(=O)CNC(=O)[C@H](CO)NC(=O)[C@@H]3CCCN3C(=O)[C@@H]3CCCN3C(=O)[C@@H]3CCCN3C(=O)[C@H](CCCCNC(=O)c3cccc(I)c3)NC(=O)CCCc3ccc(I)cc3)cc1)C(=O)N[C@@H](Cc1c[nH]cn1)C(=O)N1CCC[C@H]1C(=O)N[C@@H](CCC(N)=O)C(=O)N2 [[^125I]bcRGDiba] ({Butanoyl(4-(4-I-phenyl))}-K(Benzoyl(3-I))PPPSG[4Abz]SGCHPQ[dC]RGD[dC]-NH2; linker 10-14-18 via TBMB),tissue uptake at 5 min,[1],2.2 ± 0.5 %ID/g
same,tissue uptake at 0.5 h,[1],3.4 ± 0.5 %ID/g
same,tissue uptake at 1 h,[1],3.6 ± 0.8 %ID/g
same,tissue uptake at 2 h,[1],3.6 ± 0.7 %ID/g
same,tissue uptake at 6 h,[1],2.9 ± 0.4 %ID/g
same,tissue uptake at 12 h,[1],1.4 ± 0.3 %ID/g
same,tissue uptake at 24 h,[1],0.5 ± 0.1 %ID/g
same,tissue to tissue ratio,"U-87 MG tumor/blood, all time points (5 min to 24 h)",< 1
same,tissue uptake at 5 min,[2],23.3 ± 2.9 %ID/g
same,tissue uptake at 0.5 h,[2],18.5 ± 1 %ID/g
same,tissue uptake at 1 h,[2],15.4 ± 1.2 %ID/g
same,tissue uptake at 2 h,[2],14 ± 1.5 %ID/g
same,tissue uptake at 6 h,[2],8.5 ± 1 %ID/g
same,tissue uptake at 12 h,[2],3.9 ± 0.7 %ID/g
same,tissue uptake at 24 h,[2],1.4 ± 0.1 %ID/g
same,tissue uptake at 5 min,[3],1.7 ± 0.3 %ID/g
same,tissue uptake at 0.5 h,[3],1.9 ± 0.6 %ID/g
same,tissue uptake at 1 h,[3],1.6 ± 0.4 %ID/g
same,tissue uptake at 2 h,[3],1.5 ± 0.3 %ID/g
same,tissue uptake at 6 h,[3],1.3 ± 0.1 %ID/g
same,tissue uptake at 12 h,[3],0.6 ± 0.2 %ID/g
same,tissue uptake at 24 h,[3],0.3 ± 0.1 %ID/g
same,tissue uptake at 5 min,[4],0.6 ± 0.2 %ID/g
same,tissue uptake at 0.5 h,[4],0.4 ± 0.1 %ID/g
same,tissue uptake at 1 h,[4],0.4 %ID/g
same,tissue uptake at 2 h,[4],0.3 %ID/g
same,tissue uptake at 6 h,[4],0.2 %ID/g
same,tissue uptake at 12 h,[4],0.1 %ID/g
same,tissue uptake at 5 min,[5],7.4 ± 1.4 %ID/g
same,tissue uptake at 0.5 h,[5],5.3 ± 0.5 %ID/g
same,tissue uptake at 1 h,[5],4.5 ± 0.8 %ID/g
same,tissue uptake at 2 h,[5],4.2 ± 0.1 %ID/g
same,tissue uptake at 6 h,[5],2.7 ± 0.2 %ID/g
same,tissue uptake at 12 h,[5],1.3 ± 0.1 %ID/g
same,tissue uptake at 24 h,[5],0.5 %ID/g
same,tissue uptake at 5 min,[6],7.8 ± 0.5 %ID/g
same,tissue uptake at 0.5 h,[6],7.1 ± 1.4 %ID/g
same,tissue uptake at 1 h,[6],7.3 ± 0.4 %ID/g
same,tissue uptake at 2 h,[6],5.5 ± 0.3 %ID/g
same,tissue uptake at 6 h,[6],3.9 ± 0.4 %ID/g
same,tissue uptake at 12 h,[6],1.8 ± 0.1 %ID/g
same,tissue uptake at 24 h,[6],0.8 ± 0.1 %ID/g
same,tissue uptake at 5 min,[7],1.5 ± 0.7 %ID/g
same,tissue uptake at 0.5 h,[7],1 ± 0.1 %ID/g
same,tissue uptake at 1 h,[7],1 ± 0.1 %ID/g
same,tissue uptake at 2 h,[7],7.1 ± 2 %ID/g
same,tissue uptake at 6 h,[7],11.3 ± 2 %ID/g
same,tissue uptake at 12 h,[7],3.4 ± 1 %ID/g
same,tissue uptake at 24 h,[7],2.2 ± 0.2 %ID/g
same,tissue uptake at 5 min,[8],7.6 ± 0.5 %ID/g
same,tissue uptake at 0.5 h,[8],6.9 ± 0.2 %ID/g
